The values that follow come from patent US11912705B2, “Cathinone derivatives, pharmaceutical formulations, and methods” (The Corporation of Mercer University, priority 2020, dated 2024).

One data set deals with T1, human M5R (Homo sapiens, UniProt P08912).
T1 construct: host or cells: HEK293 (CRL-1573, ATCC), transient
T1 sequence (P08912 1-532): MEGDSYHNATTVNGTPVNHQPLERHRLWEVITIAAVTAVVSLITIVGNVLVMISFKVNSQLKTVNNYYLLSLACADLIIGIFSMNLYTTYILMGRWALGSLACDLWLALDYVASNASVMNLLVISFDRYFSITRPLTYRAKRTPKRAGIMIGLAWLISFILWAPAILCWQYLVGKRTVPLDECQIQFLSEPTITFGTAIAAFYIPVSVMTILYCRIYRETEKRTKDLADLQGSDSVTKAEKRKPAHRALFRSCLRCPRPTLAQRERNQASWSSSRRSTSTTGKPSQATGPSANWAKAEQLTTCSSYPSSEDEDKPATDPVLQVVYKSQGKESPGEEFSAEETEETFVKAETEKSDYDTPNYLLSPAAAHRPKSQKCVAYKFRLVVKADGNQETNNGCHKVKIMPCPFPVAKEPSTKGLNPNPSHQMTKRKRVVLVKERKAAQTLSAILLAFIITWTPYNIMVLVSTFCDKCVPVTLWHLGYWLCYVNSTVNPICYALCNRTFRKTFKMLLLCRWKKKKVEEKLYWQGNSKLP
Description: [3H]Scopolamine radioligand competition binding at M5R. Here is the method:
(§1) Radioligand Competition Binding: Radioligand competition binding assays were conducted using membranes collected from transiently transfected HEK293 cells (P<20 from a procured stock, CRL-1573, ATCC, Manassas, Va., USA) as previously described (Chen, Y., et al. Drug Test Anal 11, 990-998). Briefly, cells ˜90% confluent in 10 cm plates were transfected with 5 μg human M1R, M2R, M3R, M4R or […] cDNA (cDNA resource center, Bloomsburg, Pa., USA) using a lipid-based method (LipoD293 reagent, SignaGen Laboratories, Rockville, Md., USA). Membranes were collected by centrifugation about 48 hours later and stored at −80° C. until used. […] After a 90-minute incubation at room temperature on a shaker, contents from the plates were rapidly filtered through GF/B fiberglass filter mats, pre-soaked with ice cold 50 mM Tris buffer (pH 7.4), using a Microbeta Filtermat-96 cell harvester (Perkin Elmer, Waltham, Mass., USA). Approximately 200 mL of ice cold, 50 mM Tris buffer was then vacuumed through filter mats to wash away unbound radioligand. Filter mats were dried on a hot plate and soaked in Betaplate (Perkin Elmer, Waltham, Mass., USA) scintillation fluid in plastic bags. Bags were sealed and placed in cassettes. Radioactivity was measured in a Microbeta2 Microplate Counter (Perkin Elmer, Waltham, Mass., USA), and counts per minute corresponding to each well on the plates were recorded. For full dose-response competition binding assays, increasing half-log unit concentrations of five unsubstituted PSCs were tested at M2Rs and M1Rs, with the same procedures described above.
(§2) Curve Fitting and Statistical Analyses: All data were analyzed by GraphPad 8.3.0 (San Diego, Calif., USA). Ki values were determined from data fit to both one- and two-site models. […] EC50 and IC50 values from functional assays were determined from data fit to the log(agonist) vs. response (three parameters) or log(inhibitor) vs. response (three parameters) model, respectively. Kb values were calculated from IC50 values using the Cheng-Prusoff equation with modification (see, e.g., Leff, P., and Dougall, I. G. (1993) Trends Pharmacol Sci 14, 110-112): Kb=IC50/((2+([A]/[A50])nH)1/nH−1)
In general terms: Displacement assays read how much labelled ligand stays bound in the presence of the test substance.

The target in another data set is T2, human M3R (Homo sapiens, UniProt P20309).
T2 construct: host or cells: HEK293 (CRL-1573, ATCC), transient
T2 sequence (P20309 whole entry): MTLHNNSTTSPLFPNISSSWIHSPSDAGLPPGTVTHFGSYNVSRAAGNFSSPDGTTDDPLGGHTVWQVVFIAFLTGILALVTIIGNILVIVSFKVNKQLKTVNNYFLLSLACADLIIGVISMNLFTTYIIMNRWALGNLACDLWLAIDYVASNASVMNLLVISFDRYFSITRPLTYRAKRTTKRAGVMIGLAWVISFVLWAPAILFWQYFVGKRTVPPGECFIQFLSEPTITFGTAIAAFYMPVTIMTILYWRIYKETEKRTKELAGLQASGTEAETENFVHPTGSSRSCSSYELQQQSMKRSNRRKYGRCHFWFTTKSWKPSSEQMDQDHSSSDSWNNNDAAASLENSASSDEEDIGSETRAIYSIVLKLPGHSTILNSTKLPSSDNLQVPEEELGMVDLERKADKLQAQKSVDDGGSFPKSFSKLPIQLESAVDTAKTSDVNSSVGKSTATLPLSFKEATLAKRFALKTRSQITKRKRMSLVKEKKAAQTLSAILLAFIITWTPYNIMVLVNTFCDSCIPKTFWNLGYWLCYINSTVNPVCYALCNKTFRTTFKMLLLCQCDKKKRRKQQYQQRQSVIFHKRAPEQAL
Nature of the data set: biochemical. The following applies: estimate from 1 and 10 μM concentrations (N = 2); N.C. = <5% displacement of radioligand at 10 μM; read-out: estimated pKi at M3R (converted). Type of data set: binding. The procedure: as §1, §2

Another data set deals with T3, human M4R (Homo sapiens, UniProt P08173).
T3 construct: host or cells: HEK293 (CRL-1573, ATCC), transient
T3 sequence (P08173 1-479): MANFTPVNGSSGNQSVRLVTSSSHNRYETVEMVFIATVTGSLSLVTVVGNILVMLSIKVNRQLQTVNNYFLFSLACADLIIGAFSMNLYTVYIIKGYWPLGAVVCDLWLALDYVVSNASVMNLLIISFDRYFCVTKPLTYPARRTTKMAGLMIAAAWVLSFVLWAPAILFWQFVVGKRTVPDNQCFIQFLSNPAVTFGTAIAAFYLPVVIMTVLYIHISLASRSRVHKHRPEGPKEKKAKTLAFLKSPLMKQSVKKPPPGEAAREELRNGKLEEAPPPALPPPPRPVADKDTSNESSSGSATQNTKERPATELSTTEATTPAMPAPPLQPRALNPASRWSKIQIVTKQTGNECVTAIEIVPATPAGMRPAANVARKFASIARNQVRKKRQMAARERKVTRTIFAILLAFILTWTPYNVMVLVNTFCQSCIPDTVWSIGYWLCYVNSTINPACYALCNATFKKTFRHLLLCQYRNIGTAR
Description: [3H]Scopolamine radioligand competition binding at M4R. The procedure:
as §1, §2

Data set [1] concerns the target T4, human M2R (Homo sapiens, UniProt P08172).
T4 construct: host or cells: HEK293 (CRL-1573, ATCC), transient
T4 sequence (P08172 1-466): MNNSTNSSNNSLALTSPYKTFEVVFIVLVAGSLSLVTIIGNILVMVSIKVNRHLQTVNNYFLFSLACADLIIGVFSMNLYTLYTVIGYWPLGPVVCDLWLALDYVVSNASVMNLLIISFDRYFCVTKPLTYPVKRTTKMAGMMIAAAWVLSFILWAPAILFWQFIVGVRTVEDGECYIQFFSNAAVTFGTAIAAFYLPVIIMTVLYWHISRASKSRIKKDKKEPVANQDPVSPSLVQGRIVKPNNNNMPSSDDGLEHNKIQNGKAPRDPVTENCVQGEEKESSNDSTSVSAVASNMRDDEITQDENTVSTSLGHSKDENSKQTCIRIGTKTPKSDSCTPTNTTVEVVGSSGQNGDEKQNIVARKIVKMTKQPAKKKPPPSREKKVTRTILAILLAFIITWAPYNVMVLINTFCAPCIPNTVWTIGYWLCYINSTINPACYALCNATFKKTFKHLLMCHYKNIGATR
Description: [3H]Scopolamine radioligand competition binding at M2R. The procedure:
as §1, §2

For another data set, the target named is T5, human M1R (Homo sapiens, UniProt P11229).
T5 construct: host or cells: HEK293 (CRL-1573, ATCC), transient
T5 sequence (P11229 1-460): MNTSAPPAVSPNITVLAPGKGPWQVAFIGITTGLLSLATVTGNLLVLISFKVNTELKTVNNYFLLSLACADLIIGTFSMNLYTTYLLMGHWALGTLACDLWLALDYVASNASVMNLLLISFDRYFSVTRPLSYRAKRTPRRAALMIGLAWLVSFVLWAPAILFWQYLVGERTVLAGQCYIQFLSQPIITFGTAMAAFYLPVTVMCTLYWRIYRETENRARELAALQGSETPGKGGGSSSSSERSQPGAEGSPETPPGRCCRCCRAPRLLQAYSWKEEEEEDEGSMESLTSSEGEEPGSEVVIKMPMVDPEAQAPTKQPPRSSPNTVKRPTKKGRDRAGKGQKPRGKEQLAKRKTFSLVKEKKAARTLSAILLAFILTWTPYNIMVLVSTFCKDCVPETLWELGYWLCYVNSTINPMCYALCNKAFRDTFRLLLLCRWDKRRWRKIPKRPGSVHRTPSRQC
Description: biochemical. Type of data set: binding. Here is the method:
as §1, §2

The subject of data set [2] is mitochondrial activity and cellular membranes. The following applies: reported by Wojcieszak et al.; cited from earlier work.
The target in another data set is T6, human M1Rs (Homo sapiens, UniProt P11229).
T6 construct: host or cells: HEK293 (CRL-1573, ATCC), transient
T6 sequence (P11229 1-460): T5 sequence (P11229 1-460)
Description: M1R phosphoinositide hydrolysis (IP-One HTRF). Type of data set: cell-based.

The next data set deals with T7, M2Rs (Homo sapiens, UniProt P08172).
T7 sequence (P08172 1-466): T4 sequence (P08172 1-466)
Description: M2R β-arrestin recruitment. The format is cell-based. An excerpt: Data are shown as normalized means (±SEM) of two, independent determinations, with oxotremorine tested at each concentration in duplicate and α-PHP tested in quadruplicate. [*Basal signaling is defined as the normalized RLU emitted by untreated cells.]
Background: Recruitment of arrestin is a read-out of receptor activation apart from second messengers.

The target in data set [3] is T4, human M2R. Nature of the data set: M2R cAMP signaling (forskolin-stimulated cAMP, oxotremorine agonist). Type of data set: cell-based. The procedure:
The M2R coupled to Gαi/o proteins, and its agonism functioned to decrease formation of the intracellular second messenger cyclic-adenosine-monophosphate (cAMP). […] In the presence of oxotremorine, an antagonist of the M2R would be expected to reverse the effects of the agonist, thereby increasing cAMP formation.
M2R cAMP Signaling: cAMP measurements were performed with the cAMP Hunter eXpress® CHRM2 CHO-K1 GPCR assay (Eurofins DiscoveRx, Fremont, Calif., USA) according to the manufacturer's protocol. Briefly, in the provided 96-well tissue culture-treated plate, 100 μL of human M2R expressing CHO-K1 cells were seeded in cell plating reagent and incubated (37° C., 5% CO2, 95% humidity) overnight. Cell plating reagent was replaced with 30 μL of cell assay buffer the next day. For agonist stimulation, cells were treated with increasing half-log unit concentrations of oxotremorine in the presence of 10 μM forskolin, followed by incubation for 30 minutes. A cAMP antibody, cAMP working detection solution and enzyme acceptor solution were then added according to the protocol, and the final chemiluminescent signals were detected by a Mithras LB 940 microplate reader (Berthold Technologies, Bad Wildbad, Germany). Antagonist tests were run by pretreating cells with increasing half-log unit concentrations of α-PHP, followed by incubation for one hour. Cells were then treated with EC80 concentration of oxotremorine (130 nM) and 10 μM forskolin. The same incubation and detection procedure used for agonist assays was used for the remaining steps.
as §2

[4] abbreviates: estimated pKi at M2R, estimate from 1 and 10 μM concentrations (N = 2), N.C. = <5% displacement of radioligand at 10 μM.
Setting [5] is: estimate from 1 and 10 μM concentrations (N = 2), N.C. = <5% displacement of radioligand at 10 μM, read-out: estimated pKi at M1R (converted).
[6] abbreviates: full dose-response [3H]Scopolamine competition binding, α-PPP and α-PBP interpolated, read-out: pKi at M1R (converted).
Where [7] appears, read: pKi at M2R, full dose-response [3H]Scopolamine competition binding, α-PPP and α-PBP interpolated.

Structures are written as SMILES. Read-outs that look alike come from different tables or passages of the source.

`CCC(C(=O)c1ccc2c(c1)OCO2)N1CCCC1` (stereo not drawn) [MDPBP, 3,4-Methylenedioxy-α-pyrrolidinobutiophenone]: the Ki on human M5R is 18.2 µM; on human M3R it was 14.5 µM; at human M4R, 10.2 µM; on human M2R [1] (setting [4]) it was 12.6 µM.

With `CCCCC(C(=O)c1ccc2c(c1)OCO2)N1CCCC1` (stereo not drawn) [MDPHP, 3,4-Methylenedioxy-α-pyrrolidinohexiophenone], the Ki on human M5R is 7.94 µM; at human M3R it was 25.7 µM; on human M1R (estimate from 1 and 10 μM screens, read-out: estimated Ki at M1Rs), 3.63 µM; on human M4R, 12.9 µM; on human M2R [1] (setting [4]) it was 5.01 µM.

For the molecule `CCCCCC(C(=O)c1ccc2c(c1)OCO2)N1CCCC1` (stereo not drawn) [MDPHPP, 3,4-Methylenedioxy-α-pyrrolidinoheptaphenone], the Ki is 5.62 µM at human M5R; 36.3 µM at human M3R; 6.03 µM at human M1R (setting [5]); 33.1 µM on human M4R; 12 µM at human M2R [1] (setting [4]).

Consider `CCCC(C(=O)c1ccc2c(c1)OCO2)N1CCCC1` (stereo not drawn) [MDPV, 3,4-Methylenedioxypyrovalerone], for which the Ki is 6.31 µM at human M5R; 70.8 µM at human M3R; 8.71 µM at human M1R (setting [5]); 8.91 µM on human M4R; 13.8 µM at human M2R [1] (setting [4]). In addition, in [2], the “cytotoxicity (mitochondrial activity, cellular membrane damage)” value (“cytotoxicity” below) is “this effect was not observed”.

For `CNC(C)C(=O)c1ccccc1` (stereo not drawn) [methcathinone], the “cytotoxicity” value in data set [2] is on record as “these toxic effects were not observed”.

By EC50 is commonly meant the concentration that produces a half-maximal response. Take `O=C1CCCN1CC#CCN1CCCC1` [oxotremorine, Oxotremorine]: at human M1R, the “pKi High at M1R” value amounted to 7.62±0.36 and the “pKi Low at M1R” value is 5.41±0.04. Moreover, at human M2R [1] (two-site model), the “pKi High at M2R” value came out at 7.92±0.40 and the “pKi Low at M2R” value is on record as 6.15±0.10. For the same molecule, on human M1Rs, the “EC80, IP1 production” value was 0.5 µM and the “pEC, IP1 production” value was 7.21±0.20. Moreover, the “pEC50, β-arrestin recruitment” value at M2Rs was 5.71±0.11. For the same molecule, the “pEC50, decrease of forskolin-stimulated cAMP production” value at human M2R [3] (10 μM forskolin) was 7.54±0.12. The concentration giving a half-maximal response (EC50) on human M2R [3] (10 μM forskolin, read-out: EC50, decrease of forskolin-stimulated cAMP production) amounted to 0.029 µM. In addition, on human M2R [3] (forskolin-stimulated), the “EC80, inhibition of cAMP formation” value was 0.13 µM.

`CCC(C(=O)c1ccccc1)N1CCCC1` (stereo not drawn) [α-PBP, α-Pyrrolidinobutiophenone]: the Ki was 75.9 µM at human M1R (setting [6]) and 39.8 µM at human M2R [1] (setting [7]).

Consider `CCCCCC(C(=O)c1ccccc1)N1CCCC1` (stereo not drawn) [α-PHPP, α-Pyrrolidinoheptaphenone], for which the Ki on human M5R is 1.15 µM; on human M3R, 1.12 µM; at human M1R (setting [6]) it was 1.95 µM; at human M4R, 1.38 µM; on human M2R [1] (setting [7]) it was 0.661 µM.

Regarding `CC(C(=O)c1ccccc1)N1CCCC1` (stereo not drawn) [α-PPP, α-Pyrrolidinopropiophenone], the Ki is 195 µM on human M1R (setting [6]); 73 µM on human M2R [1] (Ki at M2Rs, full dose-response, interpolated); 75.9 µM on human M2R [1] (setting [7]).

In the case of `CCCCCCC(C(=O)c1ccccc1)N1CCCC1` (stereo not drawn) [α-PV9, α-Pyrrolidinooctanophenone], in [2], the “cytotoxicity” value was “potently decreased mitochondrial activity, and severely damaged cellular membranes”.
